Experimental data as given in patent US20170273985A1, “TRICYCLIC DERIVATIVE” (Sunovion Pharmaceuticals Inc., priority 2014, published 2017).

How the values were obtained:
Assay type in all cases: biochemical
[1] = target: PDE1B (Homo sapiens, UniProt Q01064); assay: In vitro HTRF PDE1 inhibition assay (PDE1B)
Description: (§1) An exemplary procedure for the in vitro Homogenous Time Resolved Fluorescence assay, which can be used to determine the inhibitory action of compounds of the invention toward PDE1 or its isoforms, follows. The HTRF PDE1 assay utilized the HTRF (Homogenous Time Resolved Fluorescence) technology, which is based on the competition between unlabeled cyclic nucleotide and cyclic nucleotide labeled with XL665 for the binding to cyclic nucleotide-specific antibody labeled with cryptate. The HTRF signal is thus inversely proportional to the concentration of cyclic nucleotide being measured. Since phosphodiesterases break down cyclic nucleotides the HTRF signal was used to determine PDE activity. The Cisbio cGMP HTRF assay kit (Cat no: 62GM2PEC) was utilized. Cyclic GMP was diluted to 200 nM in HTRF assay buffer (1 mM CaCl2, 10 mM MgCl2, 10 mM Tris-HCl, 0.1% BSA, pH 7.4). 10 μl of compound or DMSO was diluted in 200 nM cyclic GMP solution and added to wells of a 96 well white plate to give 100 nM cyclic GMP in 1% DMSO final concentration. PDE (1A3, 1B or IC) was diluted to 2× working concentration in HTRF assay buffer with 2 μg/ml calmodulin, and 10 μl was added to initiate the reaction. The plate was then incubated for 45 minutes at 37° C. d2-Labelled cyclic GMP and anti-cGMP cryptate were diluted in 50 mM phosphate buffer, 0.8 M KF, 1% Triton X100, 0.2% BSA, pH 7.0. Following incubation 10 μl d2-cGMP, then 10 μl anti cGMP cryptate were added to each well and the plate was incubated for 45 minutes at room temperature. The plate was then read on Perkin Elmer Victor at 2 different FRET readings ex/emm 340 nm/665 nm and 340 nm/615 nm. Compounds having an IC50 of <1 μM, are denoted as +++. Compounds having an IC50 of 1−10 μM, are denoted as ++. Compounds having an IC50 of 10-100 μM, are denoted as +.

[2] = target: PDE1A3 (Homo sapiens, UniProt P54750); assay: In vitro HTRF PDE1 inhibition assay (PDE1A3)
Description: as §1

[3] = target: PDE1C (Homo sapiens, UniProt Q14123); assay: In vitro HTRF PDE1 inhibition assay (PDE1C)
Description: as §1

Compound | IC50 ([1]; Table 25) [nM] | other results
CCN1c2nn3c(C4CCOCC4)ncc3c(=O)n2CC1c1ccc(OC)cc1 (racemic) [Example 66] | – | IC50 ([1]; Table 22): < 1000 nM; IC50 ([2]; Table 23): < 1000 nM; IC50 ([3]; Table 24): 1000 to 10000 nM
COCCN1CCn2c1nn1c(C(C)C)ncc1c2=O [Example 139] | < 1000 | –
CC(C)c1ncc2c(=O)n3c(nn12)N(CCc1cccnc1)CC3 [Example 140] | < 1000 | –
CC(C)c1ncc2c(=O)n3c(nn12)N(Cc1ccc(Cl)cn1)CC3 [Example 141] | < 1000 | –
O=c1c2cnc(C3CCC3)n2nc2n1CCN2CCCc1ccccn1 [Example 142] | < 1000 | –
O=c1c2cnc(C3CCC3)n2nc2n1CCN2CC1CCOCC1 [Example 143] | < 1000 | –
O=c1c2cnc(C3CCC3)n2nc2n1CCN2Cc1ccc(Cl)cn1 [Example 144] | < 1000 | –
COC(C)c1ncc2c(=O)n3c(nn12)N(CCC(C)(C)C)CC3 (centres unmarked) [Example 145] | < 1000 | –
O=c1c2cnc(C3CCOCC3)n2nc2n1CCN2CCOC(F)(F)F [Example 146] | < 1000 | –
O=c1c2cnc(C3CCOCC3)n2nc2n1CCN2CCc1cccc(F)c1 [Example 147] | < 1000 | –
O=c1c2cnc(C3CCOCC3)n2nc2n1CCN2CCC1CC1 [Example 149] | < 1000 | –
COc1ccccc1CN1CCn2c1nn1c(C3CCOCC3)ncc1c2=O [Example 150] | < 1000 | –
O=c1c2cnc(C3CCOCC3)n2nc2n1CCN2CC1CCC1 [Example 151] | < 1000 | –
O=c1c2cnc(C3CCOCC3)n2nc2n1CCN2CC1CCCC1 [Example 152] | < 1000 | –
COc1ccc(CN2CCn3c2nn2c(C4CCOCC4)ncc2c3=O)cc1 [Example 157] | < 1000 | –
COc1cccc(CN2CCn3c2nn2c(C4CCOCC4)ncc2c3=O)c1 [Example 158] | < 1000 | –
O=c1c2cnc(C3CCOCC3)n2nc2n1CCN2Cc1ccc(-c2ccccn2)cc1 [Example 161] | < 1000 | –
CC(C)CN1CCn2c1nn1c(C3CCOCC3)ncc1c2=O [Example 174] | < 1000 | –
CC(C)(C)CN1CCn2c1nn1c(C3CCOCC3)ncc1c2=O [Example 175] | < 1000 | –
CC(C)c1ncc2c(=O)n3c(nn12)N(Cc1ccc(Cl)cn1)CCC3 [Example 177] | < 1000 | –
O=c1c2cnc(C3CCC3)n2nc2n1CCCN2CC1CCOCC1 [Example 178] | < 1000 | –
O=c1c2cnc(C3CCC3)n2nc2n1CCCN2Cc1ccc(Cl)cn1 [Example 179] | < 1000 | –
COC(C)c1ncc2c(=O)n3c(nn12)N(CCC(C)(C)C)CCC3 (centres unmarked) [Example 180] | < 1000 | –
COC(C)c1ncc2c(=O)n3c(nn12)N(CCCC(F)(F)F)CCC3 (centres unmarked) [Example 181] | 1000 to 10000 | –

Compound | IC50 ([1]; Table 25) [nM] | other results
O=c1c2cnc(C3CCOCC3)n2nc2n1CCCN2CCCC(F)(F)F [Example 182] | < 1000 | –
CC(C)CN1CCCn2c1nn1c(C3CCOCC3)ncc1c2=O [Example 183] | < 1000 | –
CC(C)(C)CN1CCCn2c1nn1c(C3CCOCC3)ncc1c2=O [Example 184] | < 1000 | –
CC(C)CCN1CCCn2c1nn1c(C3CCOCC3)ncc1c2=O [Example 185] | < 1000 | –
CC(C)(C)CCN1CCCn2c1nn1c(C3CCOCC3)ncc1c2=O [Example 186] | < 1000 | –
O=c1c2cnc(C3CCOCC3)n2nc2n1CCCN2CCC1(C(F)(F)F)CC1 [Example 188] | – | IC50 ([2]; Table 26): < 1000 nM; IC50 ([3]; Table 27): < 1000 nM
O=c1c2cnc(C3CCOCC3)n2nc2n1CCCN2C[C@H]1CC[C@H](C(F)(F)F)CC1 [Example 192] | < 1000 | –
CO[C@H]1CC[C@@H](CN2CCCn3c2nn2c(C4CCOCC4)ncc2c3=O)CC1 [Example 194] | < 1000 | –
O=c1c2cnc(C3CCOCC3)n2nc2n1CCCN2C[C@H]1CC[C@@H](C(F)(F)F)CC1 [Example 195] | < 1000 | –
CCO[C@H]1CC[C@@H](CN2CCCn3c2nn2c(C4CCOCC4)ncc2c3=O)CC1 [Example 196] | < 1000 | –
O=c1c2cnc(C3CCOCC3)n2nc2n1CCCN2CC1CC1(F)F (centres unmarked) [Example 197] | < 1000 | –
CC1CN(CCCC(F)(F)F)c2nn3c(C4CCOCC4)ncc3c(=O)n2C1 (centres unmarked) [Example 198] | < 1000 | –
CC(C)c1ncc2c(=O)n3c(nn12)N(CC1CCOCC1)CC(C)(C)C3 [Example 199] | < 1000 | –
CC(C)c1ncc2c(=O)n3c(nn12)N(CC1CCOCC1)CC(F)(F)C3 [Example 201] | < 1000 | –
CC(C)CN1CC(F)(F)Cn2c1nn1c(C3CCOCC3)ncc1c2=O [Example 202] | < 1000 | –
CC(C)CCN1CC(F)(F)Cn2c1nn1c(C3CCOCC3)ncc1c2=O [Example 203] | < 1000 | –
CC(C)n1ncc2c(=O)n3c(nc21)N(Cc1ccc(C2CCOCC2)cc1)CC3 [Example 204] | < 1000 | –
CC(C)n1ncc2c(=O)n3c(nc21)N(Cc1ccc(-c2ccc(F)cn2)cc1)CC3 [Example 205] | < 1000 | –
CC(C)n1ncc2c(=O)n3c(nc21)N(CC1CCC(F)(F)CC1)CC3 [Example 206] | < 1000 | –
O=c1c2cnn(C3CCOCC3)c2nc2n1CCN2Cc1ccc(-c2ccccn2)cc1 [Example 207] | < 1000 | –
O=c1c2cnn(C3CCOCC3)c2nc2n1CCN2Cc1ccc(-c2ccc(F)cn2)cc1 [Example 208] | < 1000 | –
O=c1c2cnn(C3CCOCC3)c2nc2n1CCN2Cc1ccc(C(F)(F)F)cc1 [Example 209] | < 1000 | –
O=c1c2cnn(C3CCOCC3)c2nc2n1CCN2CC1CCC(F)(F)CC1 [Example 210] | < 1000 | –
CC(C)(C)CCN1CCn2c1nc1c(cnn1C1CCOCC1)c2=O [Example 211] | < 1000 | –

Compound | IC50 ([1]; Table 25) [nM] | other results
O=c1c2cnn(C3CCOCC3)c2nc2n1CCN2CCCC(F)(F)F [Example 212] | < 1000 | –
CC(C)CCN1CCn2c1nc1c(cnn1C1CCOCC1)c2=O [Example 213] | < 1000 | –
CC(C)n1ncc2c(=O)n3c(nc21)N(Cc1ccc(Cl)cn1)CCC3 [Example 214] | < 1000 | –
CC(C)n1ncc2c(=O)n3c(nc21)N(Cc1ccc(-c2ccccn2)cc1)CCC3 [Example 215] | < 1000 | –
CC(C)n1ncc2c(=O)n3c(nc21)N(Cc1ccc(C2CCOCC2)cc1)CCC3 [Example 216] | < 1000 | –
O=c1c2cnn(C3CCOCC3)c2nc2n1CCCN2Cc1ccc(Cl)cn1 [Example 217] | < 1000 | –
O=c1c2cnn(C3CCOCC3)c2nc2n1CCCN2Cc1ccc(C(F)(F)F)cc1 [Example 218] | < 1000 | –
O=c1c2cnn(C3CCOCC3)c2nc2n1CCCN2Cc1ccc(F)cc1 [Example 219] | < 1000 | –
O=c1c2cnn(C3CCOCC3)c2nc2n1CCCN2Cc1ccc(-c2ccccn2)cc1 [Example 220] | < 1000 | –
O=c1c2cnn(C3CCOCC3)c2nc2n1CCCN2Cc1ccc(-c2ccc(F)cn2)cc1 [Example 221] | < 1000 | –
O=c1c2cnn(C3CCOCC3)c2nc2n1CCCN2CCCC(F)(F)F [Example 222] | < 1000 | –
O=c1c2cnn(C3CCOCC3)c2nc2n1CCCN2CC1CCC(F)(F)CC1 [Example 223] | < 1000 | –
CC(C)CCN1CCCn2c1nc1c(cnn1C1CCOCC1)c2=O [Example 224] | < 1000 | –
O=c1c2cnn(C3CCOCC3)c2nc2n1CCCN2CCCCC(F)(F)F [Example 225] | < 1000 | –
CC(C)CN1CCCn2c1nc1c(cnn1C1CCOCC1)c2=O [Example 226] | < 1000 | –
O=c1c2cnn(C3CCOCC3)c2nc2n1CCCN2CC1CC1(F)F (centres unmarked) [Example 227] | < 1000 | –
CC(C)(C)CN1CCCn2c1nc1c(cnn1C1CCOCC1)c2=O [Example 228] | < 1000 | –
CC(C)(C)CCN1CCCn2c1nc1c(cnn1C1CCOCC1)c2=O [Example 229] | < 1000 | –
CO[C@@H](C)c1ncc2c(=O)n3c(nn12)N(CCCC(F)(F)F)CC3 [Example 230] | < 1000 | –
CO[C@H](C)c1ncc2c(=O)n3c(nn12)N(CCCC(F)(F)F)CC3 [Example 231] | 1000 to 10000 | –
Cc1nc(C2CCOCC2)n2nc3n(c(=O)c12)CCN3CCC(C)C [Example 234, 6-Methyl-1-(3-methylbutyl)-8-(tetrahydro-2H-pyran-4-yl)-2,3-dihydro-1H,5H-diimidazo[2,1-c:5′,1′-f][1,2,4]triazin-5-one] | 1000 to 10000 | –
CC(C)CCN1CCn2c1nn1c(C3CCOCC3)nc(C#N)c1c2=O [Example 235, 1-(3-Methylbutyl)-5-oxo-8-(tetrahydro-2H-pyran-4-yl)-2,3-dihydro-1H,5H-diimidazo[2,1-c 5′,1′-f][1,2,4]triazine-6-carbonitrile] | 1000 to 10000 | –
CC(C)CCN1CCn2c1nn1c(C3CCOCC3)nc(Cl)c1c2=O [Example 236, 6-Chloro-1-(3-methylbutyl)-8-(tetrahydro-2H-pyran-4-yl)-2,3-dihydro-1H,5H-diimidazo[2,1-c:5′,1′-f][1,2,4]triazin-5-one] | < 1000 | –
